Data: patent US5637725A, “Substituted aryl and cycloalkyl imidazolones; a new class of GABA brain receptor ligands” (Neurogen Corporation, priority 1995, dated 1997)

Target: GABAa receptor
Assay: [3H]-RO15-1788 (Flumazenil) binding assay for GABAa receptor activity, rat cortical tissue
Settings: 0.5 nM 3H-RO15-1788; rat cortical tissue homogenate; 30 min at 4° C.; nonspecific binding with 1.0 mM diazepam
Method: The pharmaceutical utility of compounds of this invention are indicated by the following assay for GABAa receptor activity.
Assays are carried out as described in Thomas and Tallman (J. Bio. Chem. 156: 9838-9842, J. Neurosci. 3: 433-440, 1983). Rat cortical tissue is dissected and homogenized in 25 volumes (w/v) of 0.05M Tris HCl buffer (pH 7.4 at 4° C.). The tissue homogenate is centrifuged in the cold (4°) at 20,000×g for 20'. The supernatant is decanted and the pellet is rehomogenized in the same volume of buffer and again centrifuged at 20,000×g. The supernatant is decanted and the pellet is frozen at -20° C. overnight. The pellet is then thawed and rehomogenized in 25 volume (original wt/vol) of buffer and the procedure is carried out twice. The pellet is finally resuspended in 50 volumes (w/vol of 0.05M Tris HCl buffer (pH 7.4 at […]).
Incubations contain […] of radioligand 0.5 nM (^3 H-RO15-1788 [^3 H-Flumazenil] specific activity 80 Ci/mmol), drug or blocker and buffer to a total volume of […]. Incubations are carried for 30 min at 4° C. then are rapidly filtered through GFB filters to separate free and bound ligand. Filters are washed twice with fresh 0.05M Tris HCl buffer (pH 7.4 at 4° C.) and counted in a liquid scintillation counter. […] diazepam is added to some tubes to determine nonspecific binding. Data are collected in triplicate determinations, averaged and % inhibition of total specific binding is calculated. Total Specific Binding=Total-Nonspecific. In some cases, the amounts of unlabeled drugs is varied and total displacement curves of binding are carried out. Data are converted to a form for the calculation of IC50 and Hill Coefficient (nH).

SMILES | Ki
O=c1[nH]c2cc(F)ccc2n1-c1nc2cccc(F)c2o1 [Compound 3, 3-(2-(7-fluorobenzoxazyl))-6-fluorobenzimidazol-2-(1H)-one] | 14 nM
O=c1[nH]c2cc(F)ccc2n1-c1nc2ccc(F)cc2o1 [Compound 4, 3-(2-(6-fluorobenzoxazyl))-6-fluorobenzimidazol-2-(1H)-one] | 5 nM
O=c1[nH]c2c(n1-c1nc3ccc(F)c(F)c3o1)CCCCC2 [Compound 1] | 3 nM
O=c1[nH]c2c(n1-c1nc3ccc(F)cc3o1)CCCCC2 [Compound 2] | 4.6 nM
COc1ccc2oc(-n3c4c([nH]c3=O)CCCC4)nc2c1 [Compound 6] | 81 nM
O=c1[nH]c2c(n1-c1nc3ccc(F)c(F)c3o1)CCCC2 [Compound 5] | 21 nM

System: GABA receptor
Assay: not given
Settings: brain membranes; cited from earlier work

SMILES | blockade of enhancement of benzodiazepine binding by GABA agonists
CN1CCc2cc3c(cc2[C@@H]1[C@H]1OC(=O)c2c1ccc1c2OCO1)OCO3 [(-) bicuculline] | much less active
CN1CCc2cc3c(cc2[C@H]1[C@@H]1OC(=O)c2c1ccc1c2OCO1)OCO3 [(+) bicuculline] | blocked
